Consider 27 compounds from the supplement of paper PMC12613149.

The nature of series [1]: reversed-phase LC retention time (C18, 15 min MeOH gradient); higher = more hydrophobic / later elution.
A short description of series [2]: collision cross section (TIMS, N2 drift gas) of the primary ion; higher = larger gas-phase ion size.
Setting [3] is: ionization mode: ESI+, ion species: [M+H]+.
The mark [4] stands for this setting: ionization mode: ESI-, ion species: [M-H]-.

Turning to `COc1cnc(OC)n2nc(NS(=O)(=O)c3c(OCC(F)F)cccc3C(F)(F)F)nc12` [Penoxsulam], the “reversed-phase LC retention time” value in series [1] (setting [3]) worked out at 12.3 min. The compound also displayed a collision cross section in series [2] (setting [3]) of 196.63 Å².
For `Oc1c(Cl)c(Cl)c(Cl)c(Cl)c1Cl` [Pentachlorophenol], the “reversed-phase LC retention time” value in series [1] (setting [4]) was found to be 13.8 min. The compound further gave a collision cross section in series [2] (setting [4]) of 137.44 Å².
As for `CCCC(C)C1(CC)C(=O)NC(=O)NC1=O` (stereo unspecified) [Pentobarbital], the “reversed-phase LC retention time” value in series [1] (setting [4]) is 12.2 min. In addition, in series [2] (setting [4]), the collision cross section is 150.46 Å².
`CC(=O)CCCCn1c(=O)c2c(ncn2C)n(C)c1=O` [Pentoxifylline]: the “reversed-phase LC retention time” value in series [1] (setting [3]) worked out at 9.78 min. In addition, the collision cross section in series [2] (setting [3]) amounted to 160.14 Å².
Consider `O=C(O)C(F)(F)C(F)(F)C(F)(F)OC(F)(F)F` [Perfluoro-4-methoxybutanoic acid], for which, in series [1] (setting [4]), the “reversed-phase LC retention time” value amounted to 11.4 min. This compound also yielded a collision cross section in series [2] (setting [4]) of 133.26 Å².
With `O=S(=O)(O)C(F)(F)C(F)(F)C(F)(F)C(F)(F)F` [Perfluorobutanesulfonic acid], the “reversed-phase LC retention time” value in series [1] (setting [4]) is 11.3 min. In series [2] (setting [4]), the collision cross section worked out at 132.6 Å².
Taken in the same sequence, the figures for `O=C(O)C(F)(F)C(F)(F)C(F)(F)C(F)(F)C(F)(F)C(F)(F)C(F)(F)C(F)(F)C(F)(F)F` [Perfluorodecanoic acid] were 16 min and 173.66 Å².
Taken in the same sequence, the figures for `O=C(O)C(F)(F)C(F)(F)C(F)(F)C(F)(F)C(F)(F)C(F)(F)C(F)(F)C(F)(F)C(F)(F)C(F)(F)C(F)(F)F` [Perfluorododecanoic acid] were 17 min and 191.62 Å².
Taken in the same sequence, the figures for `O=S(=O)(O)C(F)(F)C(F)(F)C(F)(F)C(F)(F)C(F)(F)C(F)(F)C(F)(F)F` [Perfluoroheptanesulfonic acid] were 14.7 min and 159.45 Å².
For `O=C(O)C(F)(F)C(F)(F)C(F)(F)C(F)(F)C(F)(F)C(F)(F)F` [Perfluoroheptanoic acid], the “reversed-phase LC retention time” value in series [1] (setting [4]) turned out to be 13.8 min. The compound also yielded a collision cross section in series [2] (setting [4]) of 146.98 Å².
The matching figures for `O=S(=O)(O)C(F)(F)C(F)(F)C(F)(F)C(F)(F)C(F)(F)C(F)(F)F` [Perfluorohexanesulfonic acid]: 13.9 min and 150.32 Å².
As to `O=C(O)C(F)(F)C(F)(F)C(F)(F)C(F)(F)C(F)(F)F` [Perfluorohexanoic acid], in series [1] (setting [4]), the “reversed-phase LC retention time” value stood at 12.6 min. This compound also displayed a collision cross section in series [2] (setting [4]) of 138.14 Å².
On to `O=P(O)(O)C(F)(F)C(F)(F)C(F)(F)C(F)(F)C(F)(F)C(F)(F)F` [Perfluorohexyl phosphonic acid], for which the “reversed-phase LC retention time” value in series [1] (setting [4]) came out at 10.5 min. For the same compound, in series [2] (setting [4]), the collision cross section turned out to be 152.3 Å².
Taken in the same sequence, the figures for `O=C(O)C(F)(F)C(F)(F)C(F)(F)C(F)(F)C(F)(F)C(F)(F)C(F)(F)C(F)(F)F` [Perfluorononanoic acid] were 15.4 min and 164.37 Å².
For `NS(=O)(=O)C(F)(F)C(F)(F)C(F)(F)C(F)(F)C(F)(F)C(F)(F)C(F)(F)C(F)(F)F` [Perfluorooctanesulfonamide], in series [1] (setting [4]), the “reversed-phase LC retention time” value came out at 15.7 min. In series [2] (setting [4]), the collision cross section was found to be 169.81 Å².
The matching figures for `O=S(=O)(O)C(F)(F)C(F)(F)C(F)(F)C(F)(F)C(F)(F)C(F)(F)C(F)(F)C(F)(F)F` [Perfluorooctanesulfonic acid]: 15.4 min and 169.04 Å².
The matching figures for `O=C(O)C(F)(F)C(F)(F)C(F)(F)C(F)(F)C(F)(F)C(F)(F)C(F)(F)F` [Perfluorooctanoic acid]: 14.7 min and 155.67 Å².
`O=S(=O)(O)C(F)(F)C(F)(F)C(F)(F)C(F)(F)C(F)(F)F` [Perfluoropentanesulfonic acid]: the “reversed-phase LC retention time” value in series [1] (setting [4]) is 12.8 min. The compound also displayed a collision cross section in series [2] (setting [4]) of 141.48 Å².
Regarding `O=C(O)C(F)(F)C(F)(F)C(F)(F)C(F)(F)F` [Perfluoropentanoic acid], in series [1] (setting [4]), the “reversed-phase LC retention time” value is 10.9 min. For the same compound, the collision cross section in series [2] (setting [4]) stood at 129.75 Å².
The matching figures for `O=C(O)C(F)(F)C(F)(F)C(F)(F)C(F)(F)C(F)(F)C(F)(F)C(=O)O` [Perfluorosuberic acid]: 6.68 min and 143.37 Å².
The matching figures for `O=C(O)C(F)(F)C(F)(F)C(F)(F)C(F)(F)C(F)(F)C(F)(F)C(F)(F)C(F)(F)C(F)(F)C(F)(F)C(F)(F)C(F)(F)C(F)(F)F` [Perfluorotetradecanoic acid]: 17.6 min and 209.23 Å².
Taken in the same sequence, the figures for `O=C(O)C(F)(F)C(F)(F)C(F)(F)C(F)(F)C(F)(F)C(F)(F)C(F)(F)C(F)(F)C(F)(F)C(F)(F)F` [Perfluoroundecanoic acid] were 16.5 min and 182.71 Å².
In the case of `CCOCCN(C(=O)CCl)C(=C(C)C)c1ccccc1` [Pethoxamid], in series [1] (setting [3]), the “reversed-phase LC retention time” value turned out to be 14.9 min. The collision cross section in series [2] (setting [3]) is reported as 166.72 Å².
Taken in the same sequence, the figures for `Cc1cc(=O)n(-c2ccccc2)n1C` [Phenazone] were 8.8 min and 138.2 Å².
Consider `O=S(=O)(O)c1ccc2[nH]c(-c3ccccc3)nc2c1` [Phenylbenzimidazole sulfonic acid], for which the “reversed-phase LC retention time” value amounted to 7.17 min in series [1] (setting [3]) and 8.23 min in series [1] (setting [4]). Further, the collision cross section in series [2] (setting [3]) worked out at 166.31 Å²; in series [2] (setting [4]), 167.47 Å².
As to `CCC(C(N)=O)(C(N)=O)c1ccccc1` [Phenylethylmalonamide], the “reversed-phase LC retention time” value in series [1] (setting [3]) came out at 7.73 min. For the same compound, the collision cross section in series [2] (setting [3]) came to 142.07 Å².
On to `O=C1NC(=O)C(c2ccccc2)(c2ccccc2)N1` [Phenytoin], for which the “reversed-phase LC retention time” value in series [1] (setting [3]) was found to be 11.9 min. The compound also returned a collision cross section in series [2] (setting [3]) of 162.42 Å².
